Assay results from patent US7723326B2, “Heterocyclic amide derivatives as RXR agonists for the treatment of dyslipidemia, hypercholesterolemia and diabetes” (Janssen Pharmaceutica N.V., priority 2005, dated 2010).
“And” between values parts separate entries of the source, which are not always exact repeats. Equal entries are not always repeated.

Assays:
[1] = tested on: ABCA1 mRNA in THP-1 cells; assay: ABCA1 bDNA assay (ABCA1 mRNA induction); type: cell-based; details: Homo sapiens; for EC50: ABCA1 mRNA induction, usually 18-24 hrs; for Emax at 3 µM: relative to MX-6054, read-out: ABCA1 % max MX-6054
Description: THP-1 cells, a human monocytic cell line, were obtained from ATCC and maintained in RPMI (Gibco) supplemented with 10% fetal bovine serum (Gibco), 2mM L-glutamine and 1% antibiotic-antimycotic in 5% CO2 at 37° C. For ABCA1 mRNA induction assays, the cells were pelleted and resuspended in RPMI supplemented with 0.5% charcoal treated serum (Hyclone), 2 mM glutamine and 1% antibiotic-antimycotic. The cells were plated at a density of 40,000 cells/90 μl and incubated as above for at least 4 hours before the initiation of treatments. Compounds were prepared as 10 mM stocks in DMSO. For treatments, the compounds were diluted in medium and 10 μl of 10× stocks were added to the cells at a final concentration 0.1% DMSO. The cells were incubated for the desired amount of time (usually 18-24 hrs) and then lyzed with 50 μl of Quantigene HV bDNA lysis buffer which also contained the ABCA1 bDNA probes (probe sequences shown below): […]

[2] = molecular target: T1, RXR ligand binding domain (accession number X52773) fused with the DNA binding domain of yeast GAL4 (Homo sapiens, UniProt P19793); assay: RXR co-transfection assay (GAL4-LBD luciferase reporter in HEK293 cells); type: cell-based; details: 16-18 hours
T1 construct: expressed in transfected cells; host or cells: HEK293
T1 sequence (P19793 227-458 limits assumed): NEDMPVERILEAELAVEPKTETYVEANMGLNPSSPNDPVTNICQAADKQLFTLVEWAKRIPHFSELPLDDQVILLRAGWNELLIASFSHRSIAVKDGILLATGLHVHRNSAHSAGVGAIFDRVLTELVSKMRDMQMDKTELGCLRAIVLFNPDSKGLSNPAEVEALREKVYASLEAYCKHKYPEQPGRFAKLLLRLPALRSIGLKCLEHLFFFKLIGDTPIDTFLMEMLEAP
Description: The nucleic acid sequence from 676-1464bp (accession number X52773) encoding the ligand binding domains was subcloned into the pM vector (BD Biosciences Clontech, Palo Alto, Calif.) and were fused with the DNA binding domain of yeast GAL4. HEK293 cells were cultured in DMEM/F12 medium supplemented with 10% FBS and 1% 1-glutamine (growth medium). Cells were seeded at a density of 5-10×10^6 cells in 50 ml of growth medium and left overnight, The medium was removed and the cells were washed with 15 ml of OptiMEM serum free medium (Invitrogen Corp). The cells were transfected using OptiMEM serum free medium and DMRIE transfection reagent (Invitrogen Corp). Approximately 10-30 ng of DNA for the different receptors and 5-10 ng of the luciferase reporter (1:1 ratio for RAR and 4:1 ratio for RXR of receptor DNA:reporter DNA) were gently mixed with 51 μl of DMRIE reagent in a total volume of 17 ml of OptiMEM medium. Eighteen hours after transfection, the cells were washed once with growth medium and then incubated for 6 hrs in 30 ml of growth medium. The cells were then trypsinized, and reseeded at a density of 50,000 per well in 96 well plates and left overnight. The medium was replaced with 90 μl of medium containing DMEM/F12 supplemented with 0.5% charcoal-treated FBS (HyClone; Logan, Utah) and 1% glutamine. Compounds or vehicle were added in 10 μl of 10× concentration of compound or vehicle (0.1% dimethyl sulfoxide). The cells were treated for 16-18 hours, lysed and assayed for luciferase activity using the Steady Gio luciferase assay kit (Promega, Madison, Wis.).

| SMILES | EC50 [1] [nM] | Emax at 3 µM [1] [%] | EC50 [2] |
| --- | --- | --- | --- |
| CCN1C(=O)OCc2cc(C)c(-c3cc([C@@H]4C[C@H]4C(=O)O)ccc3OC(F)(F)F)cc21 (racemic) [Compound 21, 2-[3-(1-Ethyl-6-methyl-2-oxo-1,4-dihydro-2H-benzo[d][1,3]oxazin-7-yl)-4-trifluoromethoxy-phenyl]-cyclopropanecarboxylic acid] | > 2000 | – | – |
| CCN1C(=O)C(C)(C)Oc2cc(C)c(-c3cc([C@@H]4C[C@H]4C(=O)O)ccc3OC(F)(F)F)cc21 (racemic) [Compound 22, 2-[3-(4-Ethyl-2,2,7-trimethyl-3-oxo-3,4-dihydro-2H-benzo[1,4]oxazin-6-yl)-4-trifluoromethoxy-phenyl]-cyclopropanecarboxylic acid] | > 2000 | 28.6 | 385 nM |
| Cc1cc2c(cc1-c1cc(C3CC3C(=O)O)ccc1OC(F)(F)F)N(C(C)C)C(=O)C(C)(C)O2 (racemic) [Compound 23, 2-[3-(4-Isopropyl-2,2,7-trimethyl-3-oxo-3,4-dihydro-2H-benzo[1,4]oxazin-6-yl)-4-trifluoromethoxy-phenyl]-cyclopropanecarboxylic acid] | > 2000 | 64.1 | 719 nM |
| CCn1c(=O)c(=O)n(CC)c2cc(-c3cc([C@@H]4C[C@H]4C(=O)O)ccc3OC(F)(F)F)c(C)cc21 (racemic) [Compound 26, 2-[3-(1,4-Diethyl-7-methyl-2,3-dioxo-1,2,3,4-tetrahydro-quinoxalin-6-yl)-4-trifluoromethoxy-phenyl]-cyclopropanecarboxylic acid] | > 2000 | – | > 2000 nM |
| CCN1C(=O)C(C)(C)Oc2cc(C)c(-c3cc(/C=C/C(=O)O)ccc3OC(F)(F)F)cc21 [Compound 1, 3-[3-(4-Ethyl-2,2,7-trimethyl-3-oxo-3,4-dihydro-2H-benzo[1,4]oxazin-6-yl)-4-trifluoromethoxy-phenyl]-acrylic acid] | 39.7 | – | 151 nM and 180 nM and 189 nM |
| CCN1C(=O)C(C)(C)Oc2cc(C)c(-c3cc(/C=C/C(=O)O)ccc3OCC(F)(F)F)cc21 [Compound 2, 3-[3-(4-Ethyl-2,2,7-trimethyl-3-oxo-3,4-dihydro-2H-benzo[1,4]oxazin-6-yl)-4-(2,2,2-trifluoro-ethoxy)-phenyl]-acrylic acid] | > 2000 | – | > 2000 nM |
| Cc1cc2c(cc1-c1cc(/C=C/C(=O)O)ccc1OC(F)(F)F)N(C)C(=O)C(C)(C)O2 [Compound 3, 3-[3-(2,2,4,7-Tetramethyl-3-oxo-3,4-dihydro-2H-benzo[1,4]oxazin-6-yl)-4-trifluoromethoxy-phenyl]-acrylic acid] | > 2000 | 8.4 | > 2000 nM |
| Cc1cc2c(cc1-c1cc(/C=C/C(=O)O)ccc1OC(F)(F)F)N(C(C)C)C(=O)C(C)(C)O2 [Compound 4, 3-[3-(4-Isopropyl-2,2,7-trimethyl-3-oxo-3,4-dihydro-2H-benzo[1,4]oxazin-6-yl)-4-trifluoromethoxy-phenyl]-acrylic acid] | 430 | 79 | 98.8 nM |
| Cc1cc2c(cc1-c1cc(/C=C/C(=O)O)ccc1OCC(F)(F)F)N(C)C(=O)C(C)(C)O2 [Compound 5, 3-[3-(2,2,4,7-Tetramethyl-3-oxo-3,4-dihydro-2H-benzo[1,4]oxazin-6-yl)-4-(2,2,2-trifluoro-ethoxy)-phenyl]-acrylic acid] | > 2000 | – | > 2000 nM |
| CCN1C(=O)COc2cc(C)c(-c3cc(/C=C/C(=O)O)ccc3OC(F)(F)F)cc21 [Compound 6, 3-[3-(4-Ethyl-7-methyl-3-oxo-3,4-dihydro-2H-benzo[1,4]oxazin-6-yl)-4-trifluoromethoxy-phenyl]-acrylic acid] | > 2000 | – | – |
| CCN1C(=O)C(C)Oc2cc(C)c(-c3cc(/C=C/C(=O)O)ccc3OC(F)(F)F)cc21 (stereo not shown) [Compound 7, 3-[3-(4-Ethyl-2,7-dimethyl-3-oxo-3,4-dihydro-2H-benzo[1,4]oxazin-6-yl)-4-trifluoromethoxy-phenyl]-acrylic acid] | > 2000 | – | – |
| CCC1Oc2cc(C)c(-c3cc(/C=C/C(=O)O)ccc3OC(F)(F)F)cc2N(CC)C1=O (stereo not shown) [Compound 8, 3-[3-(2,4-Diethyl-7-methyl-3-oxo-3,4-dihydro-2H-benzo[1,4]oxazin-6-yl)-4-trifluoromethoxy-phenyl]-acrylic acid] | > 2000 | – | – |
| CCN1C(=O)C(C(C)C)Oc2cc(C)c(-c3cc(/C=C/C(=O)O)ccc3OC(F)(F)F)cc21 (stereo not shown) [Compound 9, 3-[3-(4-Ethyl-2-isopropyl-7-methyl-3-oxo-3,4-dihydro-2H-benzo[1,4]oxazin-6-yl)-4-trifluoromethoxy-phenyl]-acrylic acid] | > 2000 | – | – |
| CCN1C(=O)C(C)(C)Oc2cc(C)c(-c3cc(/C=C(\C)C(=O)O)ccc3OC(F)(F)F)cc21 [Compound 10, 3-[3-(4-Ethyl-2,2,7-trimethyl-3-oxo-3,4-dihydro-2H-benzo[1,4]oxazin-6-yl)-4-trifluoromethoxy-phenyl]-2-methyl-acrylic acid] | > 2000 | 37.2 | 1400 nM |
| CCN1C(=O)OC(C)(C)c2cc(C)c(-c3cc(/C=C/C(=O)O)ccc3OC(F)(F)F)cc21 [Compound 14, 3-[3-(1-Ethyl-4,4,6-trimethyl-2-oxo-1,4-dihydro-2H-benzo[d][1,3]oxazin-7-yl)-4-trifluoromethoxy-phenyl]-acrylic acid] | > 2000 | – | – |
| CCN1C(=O)OCc2cc(C)c(-c3cc(/C=C/C(=O)O)ccc3OC(F)(F)F)cc21 [Compound 15, 3-[3-(1-Ethyl-6-methyl-2-oxo-1,4-dihydro-2H-benzo[d][1,3]oxazin-7-yl)-4-trifluoromethoxy-phenyl]-acrylic acid] | > 2000 | – | – |
| CCN1C(=O)OC(C(C)C)c2cc(C)c(-c3cc(/C=C/C(=O)O)ccc3OC(F)(F)F)cc21 (stereo not shown) [Compound 16, 3-[3-(1-Ethyl-4-isopropyl-6-methyl-2-oxo-1,4-dihydro-2H-benzo[d][1,3]oxazin-7-yl)-4-trifluoromethoxy-phenyl]-acrylic acid] | > 2000 | – | – |
| CCN1C(=O)OC(C)(C)c2cc(C)c(-c3cc(CCC(=O)O)ccc3OC(F)(F)F)cc21 [Compound 17, 3-[3-(1-Ethyl-4,4,6-trimethyl-2-oxo-1,4-dihydro-2H-benzo[d][1,3]oxazin-7-yl)-4-trifluoromethoxy-phenyl]-propionic acid] | > 2000 | – | – |
| CCN1C(=O)OC(C)(C)c2cc(C)c(-c3cc([C@@H]4C[C@H]4C(=O)O)ccc3OC(F)(F)F)cc21 [Compound 19, 2-[3-(1-Ethyl-4,4,6-trimethyl-2-oxo-1,4-dihydro-2H-benzo[d][1,3]oxazin-7-yl)-4-trifluoromethoxy-phenyl]-cyclopropanecarboxylic acid] | > 2000 | – | – |
| CCN1C(=O)OC(C(C)C)c2cc(C)c(-c3cc([C@@H]4C[C@H]4C(=O)O)ccc3OC(F)(F)F)cc21 (stereo partly shown) [Compound 20, 2-[3-(1-Ethyl-4-isopropyl-6-methyl-2-oxo-1,4-dihydro-2H-benzo[d][1,3]oxazin-7-yl)-4-trifluoromethoxy-phenyl]-cyclopropanecarboxylic acid] | > 2000 | – | – |
| CCn1c(=O)c(=O)n(CC)c2cc(-c3cc(/C=C/C(=O)O)ccc3OC(F)(F)F)c(C)cc21 [Compound 24, 3-[3-(1,4-Diethyl-7-methyl-2,3-dioxo-1,2,3,4-tetrahydro-quinoxalin-6-yl)-4-trifluoromethoxy-phenyl]-acrylic acid] | > 2000 | – | – |
| CCN1C(=O)CN(C(C)C)c2cc(C)c(-c3cc(/C=C/C(=O)O)ccc3OC(F)(F)F)cc21 [Compound 25, 3-[3-(4-Ethyl-1-isopropyl-7-methyl-3-oxo-1,2,3,4-tetrahydro-quinoxalin-6-yl)-4-trifluoromethoxy-phenyl]-acrylic acid] | > 2000 | – | – |
| CCN1CC(C)(C)Oc2cc(C)c(-c3cc(/C=C/C(=O)O)ccc3OC(F)(F)F)cc21 [Compound 27, 3-[3-(4-Ethyl-2,2,7-trimethyl-3,4-dihydro-2H-benzo[1,4]oxazin-6-yl)-4-trifluoromethoxy-phenyl]-acrylic acid] | > 2000 | – | – |
